Source: US20240132431A1, “METHOD FOR ALKYLATING ACIDIC FUNCTIONAL GROUP” (Chugai Seiyaku Kabushiki Kaisha, priority 2021, published 2024)

Target: T1, Bcl-2 protein (Recombinant Human Bcl-2 Protein) (Homo sapiens, UniProt P10415)
T1 construct: purchased Novus NBP2-34889
Test: Binding evaluation of mixture library compounds to Bcl-2 using AS-MS (affinity selection mass spectrometry)
Details: ASMS Ratio(%)=(A−C)/B×100; for ASMS ratio (%) n = 1: replicate n = 1; for ASMS ratio (%) n = 2: replicate n = 2
Outline: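 Affinity selection MS: Bcl-2 20 μM + 1200-cpd mixture, […]/cpd, Tris pH 7.4 buffer w/ Tween-20, DTT; 1 h 23° C dark; P-2 spin SEC; MeCN/MeOH extraction; RP LC/MS. ASMS Ratio(%) = (A−C)/B×100.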

[1] = AS-MS, mixture of 1200 compounds, Bcl-2
[2] = AS-MS on the mixture of 1200 library compounds

T1 sequence (P10415 whole entry): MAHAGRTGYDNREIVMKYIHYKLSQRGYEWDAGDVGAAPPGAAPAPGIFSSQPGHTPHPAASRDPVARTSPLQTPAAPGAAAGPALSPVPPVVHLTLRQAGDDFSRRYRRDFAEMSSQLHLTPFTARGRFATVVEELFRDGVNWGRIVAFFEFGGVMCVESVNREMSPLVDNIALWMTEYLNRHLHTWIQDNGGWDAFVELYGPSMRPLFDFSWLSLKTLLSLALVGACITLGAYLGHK

SMILES	ASMS ratio (%) n = 1 [1] [%]	ASMS ratio (%) n = 2 [1] [%]	ASMS ratio (%) n = 1 [2] [%]	ASMS ratio (%) n = 2 [2] [%]
CCOc1cncc(-c2cc(CN3CCN(c4ccc(C(=O)NCC(F)(F)F)nn4)CC3)cc(C(F)(F)F)c2)c1 [B1K088-01, 6-[4-[[3-(5-Ethoxypyridin-3-yl)-5-(trifluoromethyl)phenyl]methyl]piperazin-1-yl]-N-(2,2,2-trifluoroethyl)pyridazine-3-carboxamide]	2.2	−0.2	–	–
CCOc1cccc(-c2cc(CN3CCN(c4ccc(C(=O)NCC(F)(F)F)nn4)CC3)cc(OC(F)(F)F)c2)c1 [B1K089-01, 6-[4-[[3-(3-Ethoxyphenyl)-5-(trifluoromethoxy)phenyl]methyl]piperazin-1-yl]-N-(2,2,2-trifluoroethyl)pyridazine-3-carboxamide]	2.0	1.0	–	–
CCOc1cncc(-c2cc(CN3CCN(c4ccc(C(=O)NCC(F)(F)F)nn4)CC3)cc(OC(F)(F)F)c2)c1 [B1K090-01, 6-[4-[[3-(5-Ethoxypyridin-3-yl)-5-(trifluoromethoxy)phenyl]methyl]piperazin-1-yl]-N-(2,2,2-trifluoroethyl)pyridazine-3-carboxamide]	−0.6	−1.9	–	–
CCOc1cccc(-c2ccc(CN3CCN(c4ccc(C(=O)NCC(F)(F)F)nn4)CC3)c3ccccc23)c1 [B1K091-01, 6-[4-[[4-(3-Ethoxyphenyl)naphthalen-1-yl]methyl]piperazin-1-yl]-N-(2,2,2-trifluoroethyl)pyridazine-3-carboxamide]	3.6	−4.2	–	–
CCOc1cncc(-c2ccc(CN3CCN(c4ccc(C(=O)NCC(F)(F)F)nn4)CC3)c3ccccc23)c1 [B1K092-01, 6-[4-[[4-(5-Ethoxypyridin-3-yl)naphthalen-1-yl]methyl]piperazin-1-yl]-N-(2,2,2-trifluoroethyl)pyridazine-3-carboxamide]	4.1	−0.7	–	–
CCOc1cccc(-c2csc(CN3CCN(c4ccc(C(=O)NCC(F)(F)F)nn4)CC3)c2)c1 [B1K093-01, 6-[4-[[4-(3-Ethoxyphenyl)thiophen-2-yl]methyl]piperazin-1-yl]-N-(2,2,2-trifluoroethyl)pyridazine-3-carboxamide]	2.7	−0.4	–	–
CCOc1cncc(-c2csc(CN3CCN(c4ccc(C(=O)NCC(F)(F)F)nn4)CC3)c2)c1 [B1K094-01, 6-[4-[[4-(5-Ethoxypyridin-3-yl)thiophen-2-yl]methyl]piperazin-1-yl]-N-(2,2,2-trifluoroethyl)pyridazine-3-carboxamide]	1.4	−0.1	–	–
CCOc1cccc(C#Cc2ccccc2CN2CCN(c3ccc(C(=O)NCC(F)(F)F)nn3)CC2)c1 [B1K095-01, 6-[4-[[2-[2-(3-Ethoxyphenyl)ethynyl]phenyl]methyl]piperazin-1-yl]-N-(2,2,2-trifluoroethyl)pyridazine-3-carboxamide]	3.5	−0.6	–	–
CCOc1cncc(C#Cc2ccccc2CN2CCN(c3ccc(C(=O)NCC(F)(F)F)nn3)CC2)c1 [B1K096-01, 6-[4-[[2-[2-(5-Ethoxypyridin-3-yl)ethynyl]phenyl]methyl]piperazin-1-yl]-N-(2,2,2-trifluoroethyl)pyridazine-3-carboxamide]	0.0	0.0	–	–
CCOc1cccc(-c2ccc(C(C)N3CCN(c4ccc(C(=O)NCC(F)(F)F)cc4)CC3)cc2)c1 (centres unmarked) [B1K097-01, 4-[4-[1-[4-(3-Ethoxyphenyl)phenyl]ethyl]piperazin-1-yl]-N-(2,2,2-trifluoroethyl)benzamide]	−2.1	−3.1	–	–
CCOc1cncc(-c2ccc(C(C)N3CCN(c4ccc(C(=O)NCC(F)(F)F)cc4)CC3)cc2)c1 (centres unmarked) [B1K098-01, 4-[4-[1-[4-(5-Ethoxypyridin-3-yl)phenyl]ethyl]piperazin-1-yl]-N-(2,2,2-trifluoroethyl)benzamide]	−1.1	−2.4	–	–
CCOc1cccc(-c2ccc(C(C)N3CCN(c4ccc(C(=O)NCC(F)(F)F)cc4)CC3)c(F)c2)c1 (centres unmarked) [B1K099-01, 4-[4-[1-[4-(3-Ethoxyphenyl)-2-fluorophenyl]ethyl]piperazin-1-yl]-N-(2,2,2-trifluoroethyl)benzamide]	0.0	0.0	–	–
CCOc1cncc(-c2ccc(C(C)N3CCN(c4ccc(C(=O)NCC(F)(F)F)cc4)CC3)c(F)c2)c1 (centres unmarked) [B1K100-01, 4-[4-[1-[4-(5-Ethoxypyridin-3-yl)-2-fluorophenyl]ethyl]piperazin-1-yl]-N-(2,2,2-trifluoroethyl)benzamide]	0.0	0.0	–	–
CCCNC(=O)c1ccc(N2CCN(Cc3cc(OC(C)C)cc(-c4cccc(OCC)c4)c3)CC2)cc1 [B1M015-01]	−2.4	−3.0	–	–
CCCNC(=O)c1ccc(N2CCN(Cc3cc(-c4cccc(OCC)c4)cc(C(F)(F)F)c3)CC2)nn1 [B1M027-01]	1.0	0.4	–	–
CCCNC(=O)c1ccc(N2CCN(Cc3cc(OC(F)(F)F)cc(-c4cccc(OCC)c4)c3)CC2)nn1 [B1M033-01]	0.3	0.0	–	–
CCCNC(=O)c1ccc(N2CCN(Cc3ccccc3-c3cncc(OCC)c3)CC2)nn1 [B1M043-01]	2.2	−3.1	–	–
CCCNC(=O)c1ccc(N2CCN(Cc3ccccc3C#Cc3cccc(OCC)c3)CC2)cc1 [B1M052-01]	27.6	20.2	–	–
CCCNC(=O)c1ccc(N2CCN(Cc3ccccc3C#Cc3cncc(OCC)c3)CC2)cc1 [B1M054-01]	0.9	0.0	–	–
CCCNC(=O)c1ccc(N2CCN(Cc3ccc(-c4cccc(OCC)c4)c(C)c3)CC2)cc1 [B1M058-01]	−1.4	−1.5	–	–
CCCNC(=O)c1ccc(N2CCN(Cc3ccc(-c4cncc(OCC)c4)cc3CC)CC2)cc1 [B1M075-01]	77.3	46.1	–	–
CCCNC(=O)c1ccc(N2CCN(Cc3ccc(-c4cncc(OCC)c4)cc3CC)CC2)nn1 [B1M076-01, 6-[4-[[4-(5-Ethoxypyridin-3-yl)-2-ethylphenyl]methyl]piperazin-1-yl]-N-propylpyridazine-3-carboxamide]	0.5	1.5	–	–
CCCNC(=O)c1ccc(N2CCN(Cc3ccc(-c4cncc(OCC)c4)cc3OC)CC2)nn1 [B1M100-01, 6-[4-[[4-(5-Ethoxypyridin-3-yl)-2-methoxyphenyl]methyl]piperazin-1-yl]-N-propylpyridazine-3-carboxamide]	–	–	0.5	−1.5
CCOc1cccc(-c2csc(C(=O)N3CCN(c4ccc(C(=O)Nc5ccc(OC)cc5)nn4)CC3)c2)c1 [B1O001-01, 6-[4-[4-(3-Ethoxyphenyl)thiophene-2-carbonyl]piperazin-1-yl]-N-(4-methoxyphenyl)pyridazine-3-carboxamide]	–	–	−0.1	−3.1
CCOc1cncc(-c2csc(C(=O)N3CCN(c4ccc(C(=O)Nc5ccc(OC)cc5)nn4)CC3)c2)c1 [B1O002-01, 6-[4-[4-(5-Ethoxypyridin-3-yl)thiophene-2-carbonyl]piperazin-1-yl]-N-(4-methoxyphenyl)pyridazine-3-carboxamide]	–	–	2.2	2.6
